From US7868005B2, “Pyrazinyl substituted piperazine-piperidines with CXCR3 antagonist activity” (Schering Corporation, priority 2005, dated 2011)

Target: T1, human CXCR3 (N-delta 4) (Homo sapiens, UniProt P49682)
T1 construct: CD8 leader (N); Flag; expressed in transfected cells; membranes prepared
T1 sequence (P49682 5-368 limits assumed): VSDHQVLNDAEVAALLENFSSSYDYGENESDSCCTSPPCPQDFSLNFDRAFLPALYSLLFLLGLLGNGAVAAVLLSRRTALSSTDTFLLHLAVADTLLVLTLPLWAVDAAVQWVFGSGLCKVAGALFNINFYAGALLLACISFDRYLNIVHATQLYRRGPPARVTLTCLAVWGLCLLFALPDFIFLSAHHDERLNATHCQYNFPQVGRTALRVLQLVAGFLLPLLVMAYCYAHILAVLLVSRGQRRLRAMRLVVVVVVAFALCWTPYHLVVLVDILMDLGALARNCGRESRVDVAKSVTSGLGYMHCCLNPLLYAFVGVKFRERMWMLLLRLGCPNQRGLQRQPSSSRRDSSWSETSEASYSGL
Experiment: Human CXCR3 (N-delta 4) Scintillation Proximity Assay (SPA), [125I] IP-10 binding to Ba/F3-hCXCR3 membranes
Conditions: IC50 rating, Table 1; read-out: IC50
Description: The inventive compounds can readily be evaluated to determine activity at the CXCR3 receptors by known methods, such as, for example, development of a human CXCR3 (N-delta 4) Binding Assay.
Cloning and Expression of Human CXCR3 (N-delta 4):
The DNA encoding human CXCR3 was cloned by PCR using human genomic DNA (Promega, Madison, Wis.) as a template. The PCR primers were designed based on the published sequence of human orphan receptor GPR9 (1) with incorporated restriction sites, a Kozak consensus sequence, CD8 leader and Flag tag. The PCR product was subcloned into the mammalian expression vector pME18Sneo, a derivative of the SR-alpha expression vector (designated as pME18Sneo-hCXCR3 (N-delta 4).
IL-3-dependent mouse pro-B cells Ba/F3 were transfected by electroporation in 0.4 ml Dulbecco's PBS containing 4×10^6 cells with 20 μg of pME18Sneo-hCXCR3 (N-delta 4) plasmid DNA. Cells were pulsed at 400 Volts, 100 OHMs, 960 μFd. The transfected cells were under selection with 1 mg/ml G418 (Life Technologies, Gaithersburg, Md.). G418-resistant Ba/F3 clones were screened for CXCR3 expression by specific binding of [^125I] IP-10 (NEN Life Science Products, Boston, Mass.).
Preparation of Ba/F3-hCXCR3 (N-delta 4) Membranes:
Ba/F3 cells expressing human CXCR3 (N-delta 4) were pelleted and resuspended in the lysis buffer containing 10 mM HEPES, pH 7.5 and Complete® protease inhibitors (1 tablet per 100 ml) (Boehringer Mannheim, Indianapolis, Ind.) at a cell density of 20×10^6 cells per ml. After 5 minute incubation on ice, cells were transferred to 4639 cell disruption bomb (Parr Instrument, Moline, Ill.) and applied with 1,500 psi of nitrogen for 30 minutes on ice. Large cellular debris was removed by centrifugation at 1,000×g. Cell membrane in the supernatant was sedimented at 100,000×g. The membrane was resuspended in the lysis buffer supplemented with 10% sucrose and stored at −80° C. Total protein concentration of the membrane was determined by BCA method from Pierce (Rockford, Ill.).
Human CXCR3 (N-delta 4) Scintillation Proximity Assay (SPA):
For each assay point, 2 μg of membrane was preincubated for 1 hr with 300 μg wheat germ agglutinin (WGA) coated SPA beads (Amersham, Arlington Heights, Ill.) in the binding buffer (50 mM HEPES, 1 mM CaCl2, 5 mM MgCl2, 125 mM NaCl, 0.002% NaN3, 1.0% BSA) at room temperature. The beads were spun down, washed once, resuspended in the binding buffer and transferred to a 96-well Isoplate (Wallac, Gaithersburg, Md.). 25 pM of [^125I] IP-10 with tested compounds in a series of titration were added to start the reaction. After 3 hr reaction at room temperature, the amount of [^125I] IP-10 bound to the SPA beads was determined with a Wallac 1450 Microbeta counter.
The Ki ratings for the various compounds of the present invention are given in the afore-mentioned Table 1. From these ratings and value ranges, it would be apparent to the skilled artisan that the compounds of the invention have excellent utility as CXCR3 receptor antagonists.

| Structure (SMILES) | IC50 |
| --- | --- |
| CC[C@H]1CN(c2nc(N)c(C(=O)NC[C@@H](C)O)nc2Cl)CCN1C1CCN(Cc2ccc(Cl)cc2CCNS(C)(=O)=O)CC1 [compound 223] | < 25 nM |
| CC[C@H]1CN(c2ncc(C(=O)NC3CC3)nc2C)CCN1C1CCN(C(=O)c2ccc(F)cc2)CC1 [compound 447] | < 25 nM |
| CC[C@H]1CN(c2nc(N)c(C(=O)NCCO)nc2Cl)CCN1C1CCN(C(=O)c2ccc(Cl)cc2CCNC(C)=O)CC1 [compound 352] | > 100 nM |
| CC[C@H]1CN(c2nc(N)c(C(=O)NCCNS(C)(=O)=O)nc2Cl)CCN1C1CCN([C@@H](C(=O)OC)c2ccc(Cl)cc2)CC1 [compound 250] | 25 to 100 nM |
| CC[C@H]1CN(c2nc(N)c(C(=O)NCCO)nc2Cl)CCN1C1CCN(Cc2ccc(Cl)cc2OCCN2CCCC2=O)CC1 [compound 195] | > 100 nM |
| CC[C@H]1CN(c2ncc(C(N)=O)nc2C)[C@H](C)CN1C1CCN(C(=O)c2ccc(Cl)cc2)CC1 [compound 417] | < 25 nM |
| CC[C@H]1CN(c2nc(N)c(C(N)=O)nc2Cl)CCN1C1CCN(Cc2ccc(Cl)cc2C(O)C(=O)N(C)C)CC1 (stereo partly drawn) [compound 378] | < 25 nM |
| CC[C@H]1CN(c2nc(N)c(C(=O)NCCO)nc2Cl)CCN1C1CCN(Cc2ccc(Cl)cc2OCCOC)CC1 [compound 115] | < 25 nM |
| CC[C@H]1CN(c2ncc(C(=O)NC3CC3)nc2C)CCN1C1CCN(Cc2ccc(C(F)(F)F)cc2)CC1 [compound 473] | < 25 nM |
| CC[C@H]1CN(c2nc(N)c(C(=O)NCCO)nc2Cl)CCN1C1CCN(C(CCO)c2ccc(Cl)cc2)CC1 (stereo partly drawn) [compound 170] | < 25 nM |
| CC[C@H]1CN(c2nc(N)c(C(=O)NCCO)nc2Cl)CCN1C1CCN(Cc2ccc(Cl)cc2O[C@H]2CCOC2)CC1 [compound 189] | 25 to 100 nM |
| CC[C@H]1CN(c2nc(N(C)C)c(C(=O)OC)nc2Cl)CCN1C1CCN(Cc2ccc(Cl)cc2)CC1 [compound 290] | < 25 nM |
| CC[C@H]1CN(c2nc(N)c(C(=O)NCCNS(=O)(=O)C(F)(F)F)nc2Cl)CCN1C1CCN(Cc2ccc(F)c(F)c2N2CC[C@@H](O)C2)CC1 [compound 240] | < 25 nM |
| CC[C@H]1CN(c2nc(N)c(C(N)=O)nc2Cl)CCN1C1CCN([C@@H](C(=O)NC)c2ccc(Cl)cc2)CC1 [compound 50] | > 100 nM |
| CC[C@H]1CN(c2ncc(C(=O)NC3CC3)nc2C)CCN1C1CCN(Cc2ccc(F)c(F)c2)CC1 [compound 450] | < 25 nM |
| CC[C@H]1CN(c2nc(N)c(C(=O)NCCC#N)nc2Cl)CCN1C1CCN(Cc2ccc(C#N)cc2)CC1 [compound 228] | < 25 nM |
| CC[C@H]1CN(c2nc(N)c(C(=O)NCCO)nc2Cl)CCN1C1CCN(C(=O)c2ccc(F)c(F)c2N)CC1 [compound 348] | 25 to 100 nM |
| CC[C@H]1CN(c2nc(N)c(C(=O)NCCO)nc2Cl)CCN1C1CCN(Cc2ccc(OC(F)(F)F)cc2OCCCO)CC1 [compound 125] | < 25 nM |
| CC[C@H]1CN(c2nc(N)c(C(N)=O)nc2Cl)CCN1C1CCN(Cc2ccc(Cl)cc2NC(=O)C(C)O)CC1 (stereo partly drawn) [compound 27] | 25 to 100 nM |
| CC[C@H]1CN(c2ncc(C(=O)NC3CC3)nc2C)CCN1C1CCN(C(=O)c2ccc(F)c(F)c2)CC1 [compound 461] | < 25 nM |
| CC[C@H]1CN(c2nc(N)c(C(=O)NCCO)nc2Cl)CCN1C1CCN([C@@H](C(=O)OC)c2ccc(C#N)cc2)CC1 [compound 175] | < 25 nM |
| CC[C@H]1CN(c2nc(N)c(C(=O)NCCO)nc2Cl)CCN1C1CCN(Cc2ccc(F)c(F)c2N2CCOCC2)CC1 [compound 183] | 25 to 100 nM |
| CC[C@H]1CN(c2nc(N)c(C(=O)NC)nc2Cl)CCN1C1CCN(C(CO)c2ccc(Cl)cc2)CC1 (stereo partly drawn) [compound 63] | < 25 nM |
| CC[C@H]1CN(c2nc(N)c(C(N)=O)nc2Cl)CCN1C1CCN(Cc2ccc(O)c(F)c2)CC1 [compound 428] | > 100 nM |

| Structure (SMILES) | IC50 |
| --- | --- |
| CC[C@H]1CN(c2nc(N)c(C(=O)NCCNS(=O)(=O)C(F)(F)F)nc2Cl)CCN1C1CCN(Cc2ccc(Cl)cc2N2CC[C@@H](O)C2)CC1 [compound 241] | < 25 nM |
| CC[C@H]1CN(c2nc(N)c(C(=O)NCCCN3CCCC3=O)nc2Cl)CCN1C1CCN(Cc2ccc(C#N)cc2)CC1 [compound 276] | > 100 nM |
| CC[C@H]1CN(c2nc(N)c(C(N)=O)nc2Cl)CCN1C1CCN(Cc2ccc(Cl)cc2C(O)C(=O)N(C)C)CC1 (stereo partly drawn) [compound 18] | < 25 nM |
| CC[C@H]1CN(c2nc(N)c(C(=O)NCCO)nc2Cl)CCN1C1CCN(Cc2ccc(Cl)cc2C(=O)NC)CC1 [compound 160] | < 25 nM |
| CC[C@H]1CN(c2nc(N)c(C(=O)NC)nc2Cl)CCN1C1CCN(C(=O)C2(N)CCc3ccccc3C2)CC1 (stereo partly drawn) [compound 369] | > 100 nM |
| CC[C@H]1CN(c2nc(N)c(C(=O)NCCO)nc2Cl)CCN1C1CCN(C(=O)c2ccc(Cl)cc2)CC1 [compound 334] | < 25 nM |
| CC[C@H]1CN(c2nc(N)c(C(=O)NC[C@@H](C)O)nc2Cl)CCN1C1CCN(Cc2ccc(Cl)cc2CC#N)CC1 [compound 220] | < 25 nM |
| CC[C@H]1CN(c2ncc(C(=O)NC)nc2C)CCN1C1CCN(C(=O)c2ccc(OC(F)(F)F)cc2)CC1 [compound 475] | < 25 nM |
| CC[C@H]1CN(c2nc(N)c(C(=O)NC)nc2Cl)CCN1C1CCN(Cc2ccc(Cl)cc2)CC1 [compound 61] | < 25 nM |
| CC[C@H]1CN(c2nc(N)c(C(N)=O)nc2Cl)CCN1C1CCN(Cc2ccc(Cl)c(OCCS(C)(=O)=O)c2)CC1 [compound 411] | < 25 nM |
| CC[C@H]1CN(c2nc(N)c(C(=O)OC)nc2Cl)CCN1C1CCN(Cc2ccc(C#N)cc2O)CC1 [compound 306] | > 100 nM |
| CC[C@H]1CN(c2nc(N)c(C(=O)NC(=N)NC)nc2Cl)CCN1C1CCN(C(=O)c2ccc(Cl)c(F)c2)CC1 [compound 392] | < 25 nM |
| CC[C@H]1CN(c2nc(N)c(C(=O)NC)nc2Cl)CCN1C1CCN(C(=O)c2ccc(Cl)cc2N)CC1 [compound 330] | < 25 nM |
| CC[C@H]1CN(c2nc(N)c(C(=O)NC)nc2Cl)CCN1C1CCN([C@@H](C(=O)O)c2ccc(Cl)cc2)CC1 [compound 70] | < 25 nM |
| CC[C@H]1CN(c2nc(N)c(C(=O)OC)nc2Cl)CCN1C1CCN(C(=O)c2ccc(Cl)cc2C(C)C#N)CC1 (stereo partly drawn) [compound 372] | > 100 nM |
| CC[C@H]1CN(c2ncc(C(N)=O)nc2Cl)CCN1C1CCN(Cc2ccc(Cl)cc2[C@H](O)C(N)=O)CC1 [compound 396] | < 25 nM |
| CC[C@H]1CN(c2nc(N)c(C(=O)NCCO)nc2Cl)CCN1C1CCN(Cc2ccc(Cl)cc2OCCNS(=O)(=O)C(F)(F)F)CC1 [compound 132] | < 25 nM |
| CC[C@H]1CN(c2nc(N)c(C(=O)NCCO)nc2Cl)CCN1C1CCN(Cc2ccc(Cl)cc2O)CC1 [compound 138] | < 25 nM |
| CC[C@H]1CN(c2nc(N)c(C(=O)OC)nc2Cl)CCN1C1CCN(Cc2ccc(C#N)cc2OCCOC)CC1 [compound 308] | > 100 nM |
| CC[C@H]1CN(c2nc(N)c(C(N)=O)nc2Cl)CCN1C1CCN(C(=O)c2ccc(Cl)cc2)CC1 [compound 349] | 25 to 100 nM |
| CC[C@H]1CN(c2nc(N)c(C(N)=O)nc2Cl)CCN1C1CCN(Cc2ccc(Cl)cc2N2CCN(C)C2=O)CC1 [compound 386] | < 25 nM |
| CC[C@H]1CN(c2nc(N)c(C(=O)NCCO)nc2Cl)CCN1C1CCN(Cc2ccc(OC(F)(F)F)cc2OCCO)CC1 [compound 168] | < 25 nM |
| CC[C@H]1CN(c2nc(N)c(C(=O)OC)nc2Cl)CCN1C1CCN(C2c3ccc(C#N)cc3CCC2O)CC1 (stereo partly drawn) [compound 305] | > 100 nM |

Same assay, conditions: human; read-out: human IC50

| Structure (SMILES) | IC50 |
| --- | --- |
| CC[C@H]1CN(c2ncc(C(=O)NC3CC3)nc2C)CCN1C1CCN(Cc2ccc(Cl)cc2)CC1 [Formula 10] | < 1 nM |
